± gives the expanded uncertainty stated by the source.
Details: Crystal; visual observation

`CCOc1ccc(NC(C)=O)cc1` [N-(4-ethoxyphenyl)ethanamide] gave a Triple point temperature of 407 ± 1 K.

From the NIST ThermoML archive (doi:10.1021/je900614f)
